According to patent US5637318A, “Dermatological agent for assisting the transport of oxygen in the skin” (Lancaster Group AG, priority 1992, dated 1997):
Where two headings read alike, the source gives them in different places.

Tests used:
[1] = 37° C.; cited from earlier work
skin tissue [2] = assay: Penetration and residence of labelled encapsulated fluorocarbons in skin tissue, animal experiments
Excerpt: (§1) It was possible to determine the dependence of the penetration rate and the depth of penetration of the particle size of the aggregates experimentally by separate investigations in animal experiments using labelled encapsulated fluorocarbons. […] The choice of fluorocarbons or mixtures thereof according to their lipid solubility (represented by their critical solubility temperature CST in n-hexane) permits, as a further important criterion, the regulation of the residence time in the tissue.

[3] = Critical solubility temperature (CST) in n-hexane; format: physicochemical; details: represented by CST in n-hexane
Excerpt: The choice of fluorocarbons or mixtures thereof according to their lipid solubility (represented by their critical solubility temperature CST in n-hexane) permits, as a further important criterion, the regulation of the residence time in the tissue.

skin tissue [4] = details: in vivo
Excerpt: as §1

Structure (SMILES)	Vapour Pressure [1] [mm Hg]	residence time in the tissue / release from the tissue (skin tissue [2])	lipid solubility [3]	residence time in the tissue / release from the tissue (skin tissue [4])
FC1(F)OC(F)(F)C(F)(F)N(C(F)(F)C2(F)C(F)(F)C(F)(F)C(F)(F)C(F)(F)C2(F)F)C1(F)F [F-cyclohexylmethyl-morpholine]	4			
FC(F)(F)C(F)(F)C(F)(F)C(F)(F)C(F)(F)C(F)(F)OC(F)(F)C(F)(F)C(F)(F)C(F)(F)C(F)(F)C(F)(F)F [F-dihexyl ether]	2			
FC(F)(F)C(F)(F)C(F)(F)C(F)(F)C(F)(F)C(F)(F)F [F-hexane]	414			
FC(F)(F)C1(F)C(F)(F)C(F)(F)C(F)(F)C(F)(F)C1(F)F [F-methylcyclohexane]	180			
FC(F)(F)C(F)(F)C(F)(F)C(F)(F)N(C(F)(F)C(F)(F)C(F)(F)C(F)(F)F)C(F)(F)C(F)(F)C(F)(F)C(F)(F)F [F-tributylamine]	1	relatively large residence time	poor lipid solubility	
FC(F)(F)C(F)(F)C(F)(F)N(C(F)(F)C(F)(F)C(F)(F)F)C(F)(F)C(F)(F)C(F)(F)F [F-tripropylamine]	18.5			
FC(F)(F)C(F)(F)C(F)(F)C(F)(F)C1(F)OC(F)(F)C(F)(F)C1(F)F (centres unmarked) [Perfluorobutyl-tetrahydrofuran]	51	released correspondingly more rapidly from the tissue		
FC1(F)C(F)(F)C(F)(F)C2(F)C(F)(F)C(F)(F)C(F)(F)C(F)(F)C2(F)C1(F)F (centres unmarked) [Perfluorodecalin]	12.5			released correspondingly more rapidly from the tissue
FC(F)(F)C(F)(F)C(F)(F)C(F)(F)C(F)(F)C(F)(F)C(F)(F)C(F)(F)Br [Perfluorooctyl bromide]	14			
FC(F)(F)C(F)(F)C(F)(F)C(F)(F)C=CC(F)(F)C(F)(F)C(F)(F)C(F)(F)F [bis-F(butyl)ethene]	12.6			
